Legend:
[1] = target: T1, PFKL 6-phosphofructokinase, liver type (Homo sapiens, UniProt P17858); assay: competitive isoTOP-ABPP; format: binding; details: 50 uM, in vitro; for R value (DMSO/fragment) for probe 1 labeling / isoTOP-ABPP reactivity ratio at lysine P17858_K315 / isoTOP-ABPP reactivity ratio at lysine P17858_K677 / isoTOP-ABPP reactivity ratio at lysine P17858_K715: 231 sol
T1 construct: isoTOP-ABPP experiments performed in cell lysates (in vitro); endogenous in cells; host or cells: soluble proteome of human cancer cell lines (MDA-MB-231; Ramos and Jurkat also prepared)
T1 sequence (P17858 1-780): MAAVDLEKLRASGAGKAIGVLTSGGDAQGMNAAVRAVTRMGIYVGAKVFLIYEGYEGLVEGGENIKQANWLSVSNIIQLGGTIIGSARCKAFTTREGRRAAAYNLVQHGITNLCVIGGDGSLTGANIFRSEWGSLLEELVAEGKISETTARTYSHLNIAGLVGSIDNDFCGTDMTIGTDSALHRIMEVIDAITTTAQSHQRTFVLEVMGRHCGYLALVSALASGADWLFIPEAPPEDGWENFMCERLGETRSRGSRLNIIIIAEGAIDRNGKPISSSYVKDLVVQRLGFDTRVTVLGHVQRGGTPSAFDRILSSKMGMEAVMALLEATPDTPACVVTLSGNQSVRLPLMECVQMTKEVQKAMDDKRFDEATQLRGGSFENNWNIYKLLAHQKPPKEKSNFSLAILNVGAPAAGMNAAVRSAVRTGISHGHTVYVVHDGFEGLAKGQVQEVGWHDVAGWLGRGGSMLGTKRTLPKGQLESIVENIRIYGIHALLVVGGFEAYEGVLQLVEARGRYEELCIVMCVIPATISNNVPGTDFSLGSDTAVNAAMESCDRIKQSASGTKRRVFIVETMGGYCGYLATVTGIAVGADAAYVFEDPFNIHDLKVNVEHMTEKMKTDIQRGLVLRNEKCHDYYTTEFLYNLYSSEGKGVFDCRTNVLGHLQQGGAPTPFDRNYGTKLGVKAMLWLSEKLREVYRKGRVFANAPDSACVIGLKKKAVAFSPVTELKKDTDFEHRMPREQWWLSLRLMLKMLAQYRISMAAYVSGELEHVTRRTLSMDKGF
Procedure, shortened: (§1)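 Readout: isotopic light/heavy MS1 peak-area ratio (R, DMSO heavy over compound light), median across peptides sharing a modified lysine. Lysate received fragment (activated esters 50 μM, guanidinylating agents 100 μM final) or DMSO, then 0.1 mM STP-alkyne probe for 1 h at ambient temperature.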

[2] = target: T2, ENOPH1 Enolase-phosphatase E1 (Homo sapiens, UniProt Q9UHY7); assay: competitive isoTOP-ABPP; format: binding; details: 50 uM, 231 sol, in vitro; for R value (DMSO/fragment) for probe 1 labeling: Q9UHY7_K111
T2 construct: endogenous in cells; host or cells: MDA-MB-231 (soluble fraction of lysate)
Procedure, shortened: as §1

T2 sequence (Q9UHY7 whole entry, the tested form may be a part): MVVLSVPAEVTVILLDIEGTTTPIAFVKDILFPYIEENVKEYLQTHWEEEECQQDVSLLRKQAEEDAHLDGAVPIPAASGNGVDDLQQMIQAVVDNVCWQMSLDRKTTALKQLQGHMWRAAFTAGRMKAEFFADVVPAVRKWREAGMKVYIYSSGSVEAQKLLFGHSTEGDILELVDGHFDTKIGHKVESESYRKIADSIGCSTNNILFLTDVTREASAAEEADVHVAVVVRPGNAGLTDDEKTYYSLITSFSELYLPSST

Row | R value (DMSO/fragment) for probe 1 labeling ([1]; P17858_K677) | R value (DMSO/fragment) for probe 1 labeling ([1]; P17858_K715) | R value (DMSO/fragment) for probe 1 labeling [2] | isoTOP-ABPP reactivity ratio at lysine P17858_K677 [1] | isoTOP-ABPP reactivity ratio at lysine P17858_K715 [1] | isoTOP-ABPP reactivity ratio at lysine Q9UHY7_K111 [2] | SMILES | other results
1 | 1.2 | 1.6 | 1.0 |  |  |  | O=C(CCc1cn(-c2ccccc2)nc1-c1ccccc1)Oc1c(F)c(F)c(F)c(F)c1F [fragment 19, Pentafluorophenyl 3-(1,3-diphenyl-1H-pyrazol-4-yl)propanoate] | R value (DMSO/fragment) for probe 1 labeling ([1]; P17858_K315): 1.0
2 | 18.8 | 1.3 | 1.0 |  |  |  | O=C(Oc1c(F)c(F)c(F)c(F)c1F)C(c1ccccc1)c1ccccc1 [fragment 20, Pentafluorophenyl 2,2-diphenylacetate] | 
3 | 0.9 | 0.9 | 1.0 |  |  |  | O=C(Oc1c(F)c(F)c(F)c(F)c1F)c1cc(C(F)(F)F)cc(C(F)(F)F)c1 [fragment 21, Pentafluorophenyl 3,5-bis(trifluoromethyl)benzoate] | 
4 | 2.7 | 2.9 | 1.4 |  |  |  | Cn1cc(CC(=O)Oc2c(F)c(F)c(F)c(F)c2F)c2ccccc21 [fragment 22, Pentafluorophenyl 2-(1-methyl-1H-indol-3-yl)acetate] | 
5 | 1.8 | 0.6 | 1.3 |  |  |  | COc1cc(CCC(=O)Oc2c(F)c(F)c(F)c(F)c2F)cc(OC)c1OC [fragment 23, Pentafluorophenyl 3-(3,4,5-trimethoxyphenyl)propanoate] | 
6 |  |  |  | 3.3 | 0.9 | 1.4 | O=C(Oc1c(F)c(F)c(F)c(F)c1F)C1CCN(C(=O)OCc2ccccc2)CC1 [fragment 24, 1-Benzyl 4-(pentafluorophenyl) piperidine-1,4-dicarboxylate] | isoTOP-ABPP reactivity ratio at lysine P17858_K315 [1]: 0.9
7 |  |  |  | 1.6 | 1.3 | 1.1 | O=C(Oc1c(F)c(F)c(F)c(F)c1F)c1ccc2ccccc2n1 [fragment 25, Pentafluorophenyl quinoline-2-carboxylate] | isoTOP-ABPP reactivity ratio at lysine P17858_K315 [1]: 0.9
8 |  |  |  | 20.0 | 1.5 | 1.3 | O=C(CCc1coc2cc(F)ccc2c1=O)Oc1c(F)c(F)c(F)c(F)c1F [fragment 26, Pentafluorophenyl 3-(7-fluoro-4-oxo-4H-chromen-3-yl)propanoate] | 
9 |  |  |  | 18.1 | 1.3 | 1.5 | O=C(CN1C(=O)c2ccccc2C1=O)Oc1c(F)c(F)c(F)c(F)c1F [fragment 27, Pentafluorophenyl 2-(1,3-dioxoisoindolin-2-yl)acetate] | 
10 |  |  |  | 1.1 | 1.5 | 1.0 | CCn1cc(C(=O)Oc2c(F)c(F)c(F)c(F)c2F)c(=O)c2ccc(C)nc21 [fragment 28, Pentafluorophenyl 1-ethyl-7-methyl-4-oxo-1,4-dihydro-1,8-naphthyridine-3-carboxylate] | 
11 |  |  |  |  |  |  | O=C(Oc1ccc([N+](=O)[O-])cc1[N+](=O)[O-])C(c1ccccc1)(c1ccccc1)c1ccccc1 [fragment 42, 2,4-Dinitrophenyl 2,2,2-triphenylacetate] | isoTOP-ABPP ratio (R) at liganded lysine P17858_K315 ([1]; sol, 231): 0.7; isoTOP-ABPP ratio (R) at liganded lysine P17858_K677 ([1]; sol, 231): 0.8; isoTOP-ABPP ratio (R) at liganded lysine P17858_K715 ([1]; sol, 231): 0.9

Row | SMILES | R value (DMSO/fragment) for probe 1 labeling ([1]; P17858_K677) | R value (DMSO/fragment) for probe 1 labeling ([1]; P17858_K715) | R value (DMSO/fragment) for probe 1 labeling [2] | isoTOP-ABPP reactivity ratio at lysine P17858_K677 [1] | isoTOP-ABPP reactivity ratio at lysine P17858_K715 [1] | isoTOP-ABPP reactivity ratio at lysine Q9UHY7_K111 [2] | other results
12 | O=C(Oc1ccc([N+](=O)[O-])cc1[N+](=O)[O-])c1cc(C(F)(F)F)cc(C(F)(F)F)c1 [fragment 31, 2,4-Dinitrophenyl 3,5-bis(trifluoromethyl)benzoate] |  |  |  | 2.5 | 2.3 |  | 

— patent US20210255193A1, “LYSINE REACTIVE PROBES AND USES THEREOF” (The Scripps Research Institute, priority 2017, published 2021)
